From patent US20190161499A1, “PESTICIDALLY ACTIVE 1,2,4-TRIAZOLE DERIVATIVES” (SYNGENTA PARTICIPATIONS AG, priority 2015, published 2019)
Read-outs that look alike come from different tables or passages of the source.

Experiments:
Assay type in all cases: in vivo
[1] = system: Plutella xylostella (Diamond Back Moth); assay: whole plant or invertebrate; conditions: 120 h, application rate 200 ppm, L2 larvae, 5 days after infestation, read-out: effect in at least one of the two categories (mortality or growth inhibition)
Method: Example B2: Plutella xylostella (Diamond Back Moth)
(§1) 24-well microtiter plates with artificial diet were treated with aqueous test solutions prepared from 10,000 ppm DMSO stock solutions by pipetting. After drying, the plates were infested with L2 larvae (10 to 15 per well). The samples were assessed for mortality and growth inhibition in comparison to untreated samples 5 days after infestation.

[2] = system: Diabrotica Balteata (Corn Root Worm); assay: whole plant or invertebrate; conditions: 96 h, read-out: effect in at least one of the two categories (mortality or growth inhibition)
Method: Example B3: Diabrotica Balteata (Corn Root Worm)
as §1, with “Maize sprouts, placed on an agar layer in 24-well” for “24-well”, “plates” for “plates with artificial diet”, “spraying.” for “pipetting.”, “(6” for “(10”, “10” for “15”, “4” for “5”

[3] = system: Spodoptera littoralis (Egyptian Cotton Leaf Worm); assay: Spodoptera littoralis cotton leaf disc spray test; conditions: foliar, 72 h, application rate 200 ppm, L1 larvae, 3 days after infestation, read-out: control (at least one of mortality, anti-feedant effect, growth inhibition)
Method: Spodoptera littoralis (Egyptian Cotton Leaf Worm)
Cotton leaf discs were placed on agar in 24-well microtiter plates and sprayed with aqueous test solutions prepared from 10,000 ppm DMSO stock solutions. After drying, the leaf discs were infested with five L1 larvae. The samples were assessed for mortality, anti-feedant effect, and growth inhibition in comparison to untreated samples 3 days after infestation. Control of Spodoptera littoralis by a test sample is when at least one of mortality, anti-feedant effect, and growth inhibition is higher than the untreated sample.

[4] = application rate 200 ppm, L2 larvae, 4 days after infestation

Structure (SMILES)	percent effect (mortality or growth inhibition) at 200 ppm [1] [%]	percent effect (mortality or growth inhibition) at 200 ppm [2, 4] [%]	percent control (mortality, anti-feedant effect or growth inhibition) at 200 ppm [3] [%]	percent effect (mortality or growth inhibition) at 200 ppm [2] [%]
Fc1ccccc1-n1nc(-c2ccc(Cl)cc2)nc1CN1CCC(c2ncccn2)CC1 [Example 1.1, 2-[1-[[5-(4-chlorophenyl)-2-(2-fluorophenyl)-1,2,4-triazol-3-yl]methyl]-4-piperidyl]pyrimidine]	≥ 80	≥ 80	≥ 80	–
Fc1ccccc1-n1nc(-c2ccc(Cl)cn2)nc1CN1CCC(c2ncccn2)CC1 [Example 1.4]	≥ 80	≥ 80	≥ 80	–
Fc1ccccc1-n1nc(-c2ccc(Cl)cc2)nc1CN1CCC(C(F)(F)F)CC1 [Example 1.5]	–	≥ 80	–	–
Cc1ccccc1-c1nc(CN2CCC(c3ncccn3)CC2)n(-c2ccccc2F)n1 [Example 1.36]	–	≥ 80	–	–
Cc1cccc(-c2nc(CN3CCC(c4ncccn4)CC3)n(-c3ccccc3F)n2)c1 [Example 1.37]	–	≥ 80	≥ 80	–
NC(=O)C1CCN(Cc2nc(-c3ccc(Cl)cc3)nn2-c2ccccc2F)CC1 [Example 1.47]	–	≥ 80	≥ 80	–
Clc1ccc(-c2nc(CN3CCC(c4ncccn4)CC3)n(-c3ccc(Cl)c(Cl)c3)n2)cc1 [Example 1.50]	–	≥ 80	–	–
Cc1cccc(-n2nc(-c3ccc(Cl)cc3)nc2CN2CCC(c3ncccn3)CC2)c1 [Example 1.51]	–	≥ 80	–	–
Cc1ccc(-n2nc(-c3ccc(Cl)cc3)nc2CN2CCC(c3ncccn3)CC2)cc1 [Example 1.52]	–	≥ 80	≥ 80	–
Clc1ccc(-c2nc(CN3CCC(c4ncccn4)CC3)n(-c3cccc(Br)c3)n2)cc1 [Example 1.57]	–	≥ 80	–	–
Clc1ccc(-c2nc(CN3CCC(c4ncccn4)CC3)n(C3CCC3)n2)cc1 [Example 1.58]	–	≥ 80	–	–
CC(C)n1nc(-c2ccc(Cl)cc2)nc1CN1CCC(c2ncccn2)CC1 [Example 1.60]	–	≥ 80	–	–
Clc1ccc(-c2nc(CN3CCC(c4ncccn4)CC3)n(-c3ccc(Cl)cc3Cl)n2)cc1 [Example 1.65]	–	≥ 80	≥ 80	–
Clc1ccc(-c2nc(CN3CCC(c4ncccn4)CC3)n(-c3cccc(Cl)c3)n2)cc1 [Example 1.69]	–	≥ 80	–	–
Cc1ccc(-n2nc(-c3ccc(Cl)cc3)nc2CN2CCC(c3ncccn3)CC2)cc1C [Example 1.73]	–	≥ 80	–	–
Cc1ccc(C)c(-n2nc(-c3ccc(Cl)cc3)nc2CN2CCC(c3ncccn3)CC2)c1 [Example 1.74]	–	≥ 80	–	–
COc1cccc(-n2nc(-c3ccc(Cl)cc3)nc2CN2CCC(c3ncccn3)CC2)c1 [Example 1.75]	–	≥ 80	–	–
COc1ccc(-n2nc(-c3ccc(Cl)cc3)nc2CN2CCC(c3ncccn3)CC2)cc1 [Example 1.79]	–	≥ 80	≥ 80	–
Cc1cccc(-n2nc(-c3ccc(Cl)cc3)nc2CN2CCC(c3ncccn3)CC2)c1C [Example 1.82]	–	≥ 80	≥ 80	–
Clc1ccc(-c2nc(CN3CCC(c4ncccn4)CC3)n(-c3cc(Cl)ccc3Cl)n2)cc1 [Example 1.86]	–	≥ 80	–	–
Cc1ccc(-n2nc(-c3ccc(Cl)cc3)nc2CN2CCC(c3ncccn3)CC2)c(C)c1 [Example 1.87]	–	≥ 80	≥ 80	–
Fc1ccccc1-n1nc(Cc2ccc(Cl)cc2)nc1CN1CCC(c2ncccn2)CC1 [Example 1.91]	–	≥ 80	≥ 80	–
Cc1ccc(-c2nc(CN3CCC(c4ncccn4)CC3)n(-c3ccccc3F)n2)cc1F [Example 1.92]	–	≥ 80	≥ 80	–
Fc1ccccc1-n1nc(C2CC2)nc1CN1CCC(c2ncccn2)CC1 [Example 1.93]	–	≥ 80	–	–
Fc1ccccc1-n1nc(-c2ccccc2)nc1CN1CCC(c2ncccn2)CC1 [Example 1.94]	–	≥ 80	≥ 80	–

Structure (SMILES)	percent effect (mortality or growth inhibition) at 200 ppm [1] [%]	percent effect (mortality or growth inhibition) at 200 ppm [2, 4] [%]	percent control (mortality, anti-feedant effect or growth inhibition) at 200 ppm [3] [%]	percent effect (mortality or growth inhibition) at 200 ppm [2] [%]
Cc1ccc(-c2nc(CN3CCC(c4ncccn4)CC3)n(-c3ccccc3F)n2)cc1 [Example 1.95]	–	≥ 80	≥ 80	–
Fc1ccccc1-n1nc(-c2cccs2)nc1CN1CCC(c2ncccn2)CC1 [Example 1.96]	–	≥ 80	–	–
CCc1nc(CN2CCC(c3ncccn3)CC2)n(-c2ccccc2F)n1 [Example 1.99]	–	≥ 80	–	–
CC(C)c1nc(CN2CCC(c3ncccn3)CC2)n(-c2ccccc2F)n1 [Example 1.100]	–	≥ 80	–	–
COc1ccc(-c2nc(CN3CCC(c4ncccn4)CC3)n(-c3ccccc3F)n2)cc1 [Example 1.101]	–	≥ 80	≥ 80	–
Fc1ccccc1-n1nc(-c2ccccn2)nc1CN1CCC(c2ncccn2)CC1 [Example 1.102]	–	≥ 80	–	–
Fc1ccccc1-n1nc(-c2ccc(Cl)cc2)nc1CN1CCC(c2ncc[nH]2)CC1 [Example 1.112]	–	≥ 80	–	–
Fc1ccccc1-n1nc(-c2ccc(Cl)cc2)nc1CN1CCC(c2ncon2)CC1 [Example 1.113]	–	≥ 80	≥ 80	–
Fc1ccccc1-n1nc(-c2ccc(Cl)cc2)nc1CN1CCC(c2nccs2)CC1 [Example 1.115]	–	≥ 80	≥ 80	–
Fc1ccccc1-n1nc(-c2ccc(Cl)cc2)nc1CN1CCC(c2ccncn2)CC1 [Example 1.116]	–	≥ 80	≥ 80	–
Cn1ccnc1C1CCN(Cc2nc(-c3ccc(Cl)cc3)nn2-c2ccccc2F)CC1 [Example 1.117]	–	≥ 80	≥ 80	–
Cc1nnc(C2CCN(Cc3nc(-c4ccc(Cl)cc4)nn3-c3ccccc3F)CC2)o1 [Example 1.118]	–	≥ 80	–	–
Fc1ccccc1-n1nc(-c2ccc(Cl)cc2)nc1CN1CCC(c2cscn2)CC1 [Example 1.119]	–	≥ 80	≥ 80	–
Fc1ccccc1-n1nc(-c2ccc(Cl)cc2)nc1CN1CCC(c2ncno2)CC1 [Example 1.121]	–	≥ 80	–	–
Cc1ccnc(C2CCN(Cc3nc(-c4ccc(Cl)cc4)nn3-c3ccccc3F)CC2)n1 [Example 1.125]	–	≥ 80	≥ 80	–
Fc1ccccc1-n1nc(-c2ccc(Cl)cc2)nc1CN1CC=C(c2ccc(Cl)cn2)CC1 [Example 3.1]	–	–	–	≥ 80
Fc1ccccc1-n1nc(-c2ccc(Cl)cc2)nc1CN1CCC(c2cc(Cl)cc(Cl)c2)(C(F)(F)F)C1 (stereo not drawn) [Example 5.2]	≥ 80	–	–	–
Fc1ccccc1-n1nc(-c2ccc(Cl)cc2)nc1CN1CCC2(CC1)CC(C1CC1)=NO2 [Example 5.4]	–	≥ 80	≥ 80	–
Fc1ccccc1-n1nc(-c2ccc(Cl)cc2)nc1CN1CCC2(CC1)CC(C(F)(F)F)=NO2 [Example 5.5]	–	≥ 80	≥ 80	–
Fc1ccccc1-n1nc(-c2ccc(Cl)cc2)nc1CN1CCC(c2ncccn2)C1 (stereo not drawn) [Example 5.7]	≥ 80	≥ 80	–	–
CCC1CCCCN1Cc1nc(-c2ccc(Cl)cc2)nn1-c1ccccc1F (stereo not drawn) [Example 5.16]	–	≥ 80	–	–
CCOC(=O)C1CCCN(Cc2nc(-c3ccc(Cl)cc3)nn2-c2ccccc2F)C1 (stereo not drawn) [Example 5.17]	–	≥ 80	–	–
CCC1CCCN(Cc2nc(-c3ccc(Cl)cc3)nn2-c2ccccc2F)C1 (stereo not drawn) [Example 5.21]	–	≥ 80	–	–
CCOC(=O)C1CCCCN1Cc1nc(-c2ccc(Cl)cc2)nn1-c1ccccc1F (stereo not drawn) [Example 5.22]	–	≥ 80	–	–
CC1CCCN1Cc1nc(-c2ccc(Cl)cc2)nn1-c1ccccc1F (stereo not drawn) [Example 5.30]	–	≥ 80	–	–
